The test system of data set [1] is Mouse 3T3-L1 preadipocytes. Briefly: 3T3-L1 adipocyte differentiation assay. Format: cell-based. The note with it: 0.1 μM compared to Compound 1 at equal concentration; pre-adipocytes to adipocytes. As for the experimental part: Mouse 3T3-L1 cells were grown in 96-well tissue culture plates containing growing medium (DME containing 10% calf serum (CS) plus glutamine-pen-strep) at a density of 3,000 cells/well. Two days after reaching confluence, cells are treated with the different compounds in DM (Day 0). Compound 1 is included in all the experiments, and its ability to differentiate 3T3-L1 cells at 0.1 μM is taken as reference for 100% differentiation. After 7 days the lipid content of the cells was determined.
Prior to testing compounds in vivo, they can be run through the in vitro adipocyte differentiation assay based on the protocol of Zhang, et al. (1996) Negative Regulation of Peroxisome Proliferator—Activated Receptor—γGene Expression Contributes to the Antiadipogenic effects of Tumor Necrosis Factor—α. Mol. Endo. 10:1457-1456, incorporated herein by reference. In short, mouse 3T3-L1 preadipocytes are grown in culture medium containing 10% calf serum supplemented with antibiotics. Two days after reaching confluence, cells are treated with the selected compound at different concentrations dissolved in medium containing 10% fetal calf serum supplemented with antibiotics and kept at 10% CO2. The test compounds are replaced every 2-3 days. Differentiation is assessed after 7 days of treatment by the lipid content in the cells, using the Triglyceride (INFINITY) reagent (Sigma Chemical, St. Louis, Mo.).
The ability of a compound to induce preadipocytes to differentiate into adipocytes is an indicator of its antidiabetic activity. This allows for screening many compounds in a simple in vitro assay, thus avoiding the task of testing all compounds in vivo. The adipocyte differentiation assay is based on the protocol of Zhang, et al. (1996) Negative Regulation of Peroxisome Proliferator-Activated Receptor-γ Gene Expression Contributes to the Antiadipogenic effects of Tumor Necrosis Factor—α. Mol. Endo. 10:1457-1456, incorporated herein by reference at least for material related to adipocyte differentiation assays. Mouse 3T3-L1 preadipocytes are grown in culture medium containing 10% calf serum supplemented with antibiotics. Two days after reaching confluence, cells are treated with the selected compound at different concentrations dissolved in medium containing 10% fetal calf serum supplemented with antibiotics and kept at 10% CO2. The test compounds are replaced every 2-3 days. Differentiation is assessed after 7 days of treatment by the lipid content in the cells, using the Triglyceride (INFINITY) reagent (Sigma Chemical, St. Louis, Mo.) (see FIG. 15).

The next data set relates to KKA^y mice. Briefly: Antidiabetic activity in type 2 diabetic KKA^y mice. Format: in vivo, mouse. As to conditions: for Efficacious in KKAy Mice: efficacious = lowers glucose without increasing triglycerides. As for the experimental part:
Prior to commencing treatment, all of the animals are bled from the tail vein and serum levels of glucose and triglyceride are measured in duplicate. The animals are then sorted into different treatment groups with equal average triglyceride levels. The animals are treated with a single daily oral dose of the test compound suspended in sesame oil (dose volume of 3 ml/kg).
In short, adult diabetic KKA^y mice are housed in a fixed 12—12-hr artificial light-dark cycle, and maintained on a standard rodent diet. Prior to commencing treatment, all of the animals are bled from the tail vein and serum levels of glucose and triglyceride are measured in duplicate. The animals are then sorted into different treatment groups with equal average triglyceride levels. The animals are treated with a single daily oral dose ranging from 3-30 mg/kg of the test compound suspended in sesame oil (dose volume of 3-5 ml/kg). Following one week of treatment the animals are bled from the tail vein and Serum glucose and triglycerides are measured in duplicate.
In this example, compound 1, which belongs to the novel subclass of RXR ligands is compared to a typical RXR ligand like compound 2 in the treatment of KKA^y mice.
For this study, adult diabetic KKA^y mice were housed in a fixed 12—12-hr artificial light-dark cycle, and maintained on a standard rodent diet. Prior to commencing treatment, all of the animals are bled from the tail vein and serum levels of glucose and triglyceride are measured in duplicate. The animals are then sorted into different treatment groups with equal average triglyceride levels. The animals are treated with a single daily oral dose of the test compound suspended in sesame oil (dose volume of 3 ml/kg).

The target of another data set is T1, RXR receptor (Homo sapiens, UniProt P19793).
T1 construct: expressed in transfected cells
T1 sequence (P19793 1-462): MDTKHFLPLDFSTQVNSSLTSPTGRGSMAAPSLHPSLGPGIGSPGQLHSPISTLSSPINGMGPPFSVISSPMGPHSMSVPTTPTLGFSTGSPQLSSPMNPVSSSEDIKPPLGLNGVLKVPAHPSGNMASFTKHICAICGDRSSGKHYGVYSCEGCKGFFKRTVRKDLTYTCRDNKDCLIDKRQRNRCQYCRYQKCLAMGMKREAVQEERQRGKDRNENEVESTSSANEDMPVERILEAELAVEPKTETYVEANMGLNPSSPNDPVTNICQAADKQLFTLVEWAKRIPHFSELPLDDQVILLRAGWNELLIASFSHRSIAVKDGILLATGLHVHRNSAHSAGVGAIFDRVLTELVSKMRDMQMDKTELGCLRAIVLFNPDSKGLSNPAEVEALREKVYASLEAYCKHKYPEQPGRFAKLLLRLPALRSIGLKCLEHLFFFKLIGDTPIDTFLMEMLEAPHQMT
Briefly: RXR activation (transient transfection reporter assay). Type of data set: cell-based. The note with it: 1 μM compared to 9-cis-RA at equal concentration. From the text:
RXR agonists activate the RXR receptor when interacting with RXR by binding to its binding pocket. This activation can be independent of whether the agonist, while interacting with portions of the ligand binding pocket, also interacts with side pocket 1. Activation, also often referred to as transcriptional activation, of RXR by agonists can be measured by a number of commonly used assays where the effect of the agonist ligand interacting with the RXR ligand binding pocket is to stimulate or induce transcription of a gene or genes in a cell. In one particular embodiment, transient transfection experiments (as described essentially by Zhang, et al. (1996) Negative Regulation of Peroxisome Proliferator—Activated Receptor—γ Gene Expression Contributes to the Antiadipogenic effects of Tumor Necrosis Factor—α. Mol. Endo. 10:1457-1456) can be used. In these cases, full length RXR proteins are expressed in living cells. Alternatively, hybrid proteins that contain a portion of another DNA binding domain and the ligand binding portion of the human RXRα receptor can be expressed in living cells instead of the full length RXR protein. Such hybrid proteins can bind to and activate specific reporter genes introduced into the same living cell and activation of such reporter genes is measured. The assays described here are very commonly used today by people skilled in the art of molecular biology experimenting. Transient transection assays are often used instead of ligand binding assays and can serve to measure or estimate an affinity of an RXR agonist ligand for RXR protein. The effective dose fifty (ED50, also called EC50) is the concentration of the ligand necessary to lead to one half maximal activation of the reporter gene in a living cell. Compounds that show 60% of the activity of the agonist 9-cis retenoic acid at 10^−6 M can be considered an RXR activator/agonist. Compounds which show 70% 80% 90% of the activity of the agonist 9-cis retinoic acid are also provided.
To confirm that the computer modeling/design of a compound does result in an RXR activator or RXR agonist, i.e. a compound that leads to RXR activation or transcriptional activation, commonly used assays can be applied, where the effect of the agonist or activator, interacting with the RXR ligand binding pocket is to stimulate or induce transcription of a gene or genes in a cell. In one particular embodiment, transient transfection experiments (as described essentially by Zhang, et al. (1996) Negative Regulation of Peroxisome Proliferator—Activated Receptor—γ Gene Expression Contributes to the Antiadipogenic effects of Tumor Necrosis Factor—α. Mol. Endo. 10:1457-1456) can be used. In these cases, full length RXR proteins are expressed in living cells. Alternatively, hybrid proteins that contain a portion of another DNA, binding domain and the ligand binding portion of the human RXRα receptor can be expressed in living cells instead of the fall length RXR protein. Such hybrid proteins can bind to and activate specific reporter genes introduced into the same living cell and activation of such reporter genes is measured (Brand, A. H. & Perrimon, 1993, Development, 118:401-415; Moya-Camarena, S. Y. et.al., 1999, J. Lipid Res., 40:1426:1433; Yi, Y. W. et al., 2000, Biochem. Biophys. Res. Commun., 272:193-198, each are herein incorporated by reference at least for material related to reporter assays). These assays not only measure binding of the ligand to its target, which could also be measured by an in vitro binding assay, but also measure the agonistic or activator activity of the compound. In such an assay, new compounds are compared to a standard activator like compound I or the natural agonist of RXR: 9-cis retinoic acid (see Example 7). For instance, all compounds that show at a given concentration at least 60% of the activity of 9-cis retinoic acid can be considered useful activators.

As for `Cc1cc2c(cc1C1(c3ccc(C(=O)O)cn3)CC1)C(C)(C)CCC2(C)C` [Compound 5], in data set [1], the “Differentiation Activity” value is over 100%. In the data set with KKA^y mice, the “Efficacious in KKAy Mice” value is recorded as “No”.
`Cc1cc2c(cc1-c1cc(C=C3SC(=O)NC3=O)ccc1N(C)C)C(C)(C)CCC2(C)C` [Compound 3]: the “RXR Activation” value at RXR receptor amounted to 120%. The “Differentiation Activity” value in data set [1] is reported as 100%. Further, in the data set on KKA^y mice, the “Efficacious in KKAy Mice” value is “Yes”.
For the molecule `CON=C1CCC(C)(C)c2cc(C)c(-c3cc(C=C4SC(=O)NC4=O)ccc3OC(F)(F)F)cc21` [Compound 7], the “RXR Activation” value on RXR receptor is recorded as 100%. In addition, in data set [1], the “Differentiation Activity” value turned out to be 80%. Also, the glucose lowering activity entry with KKA^y mice (FIG. 16) is listed as “glucose lowering activity”. Also, in the data set with KKA^y mice (FIG. 17), the triglyceride lowering activity result was “triglyceride lowering activity”. In the data set on KKA^y mice, the “Efficacious in KKAy Mice” value is “Yes”.
On to `CCN1C(=O)CC(C)(C)c2cc(C)c(-c3cc(/C=C4\SC(=O)NC4=O)ccc3OC(F)(F)F)cc21` [Compound 8, 5-[3-(1-Ethyl-4,4,6-trimethyl-2-oxo-1,2,3,4-tetrahydro-quinolin-7-yl)-4-trifluoromethoxy-benzylidene]-thiazolidine-2,4-dione], for which the “RXR Activation” value at RXR receptor worked out at 90%. Also, the “Differentiation Activity” value in data set [1] came to 95%. In addition, the “Efficacious in KKAy Mice” value with KKA^y mice was “Yes”.
As to `Cc1cc2c(cc1-c1cc(C=C3SC(=O)NC3=O)ccc1O)C(C)(C)CCC2(C)C` [Compound 4], the “RXR Activation” value at RXR receptor was over 100%. Moreover, the “Differentiation Activity” value in data set [1] was over 100%. Moreover, the “Efficacious in KKAy Mice” value in the data set on KKA^y mice is given as “No”.
`CO/N=C1\CCC(C)(C)c2cc(C)c(-c3cc(/C=C4\SC(=O)NC4=O)ccc3OC(F)(F)F)cc21` [Example 8, 3-[(1-Oxo-4,4,6-trimethyl-1,2,3,4-tetrahydronaphthalene-7-yl)-O-methyloxime]-4-trifluoromethoxy-benzylidene-2,4-thiazolidinedione] displayed a melting point of 224 °C.
Turning to `COc1ccc(C=C2SC(=O)NC2=O)cc1-c1cc2c(cc1C)C(C)(C)CCC2(C)C` [Compound 6], the “RXR Activation” value on RXR receptor is over 100%. For the same molecule, the “Differentiation Activity” value in data set [1] is reported as over 100%. For the same molecule, the “Efficacious in KKAy Mice” value with KKA^y mice is listed as “No”.
`CO/N=C1\CCC(C)(C)c2cc(C)c(-c3cc(/C=C4\SC(=O)NC4=O)ccc3Cl)cc21` gave a melting point of 252 to 254 °C.
Still for that read-out and setting: the figure for `CO/N=C1\CCC(C)(C)c2cc(C)c(-c3cc(/C=C4\SC(=O)NC4=O)ccc3N(C)C)cc21` is 254 to 256 °C.
Turning to `CC(C)Cc1cc(-c2cc(C=C3SC(=O)NC3=O)ccc2OC(F)(F)F)c2c(c1)C(C)(C)CO2` [Compound 9], the “RXR Activation” value at RXR receptor is recorded as 125%. Also, the “Differentiation Activity” value in data set [1] turned out to be 30%. In addition, the “Efficacious in KKAy Mice” value with KKA^y mice was “Yes”.

The values are drawn from patent publication US7265139B2, “RXR activating molecules” (Incyte San Diego Inc., priority 2001, dated 2007).
